Laboratory results taken from patent US7482427B2, “Positive modulator of bone morphogenic protein-2” (BioSurface Engineering Technologies, Inc., priority 2002, dated 2009).

Tests used:
[1] = tested on: C2C12 cells; test: Alkaline phosphatase (ALP) activity assay in C2C12 cells; type: cell-based, Mouse; details: for induction of ALP by growth factor in the presence of B2A2: B2A2 1000 ng/mL, FGF-2 50 ng/mL, VEGF 25 ng/mL, TGF-β1 50 pg/mL, 3 days
Description: Alkaline phosphatase (ALP) Activity Assay. C2C12 cells and C3H10T½ cells were cultured at 37° C. in a humidified atmosphere of 5% CO2 and 95% air, with DMEM/F12 medium supplemented with 10% serum, penicillin/streptomycin. […] At 4-5 days post induction, ALP activity was determined as described by Akiyama and colleagues (Akiyama et al. 1997, Exp Cell Res 235(2):362-9.) with modifications. Briefly, cells were washed once with phosphate-buffered saline (PBS) and lysed with 0.1% Triton×100 in 10 mM Tris HCl, pH 9.0. Protein concentration was determined using the BCA Protein Assay Kit (Pierce Biotechnology, Rockford, Ill.). Then ALP activity was measured by adding ALP buffer (1 M diethanolamine, 0.5 mM MgCl2, 1 mg/mL p-nitrophenylphosphate, pH 9.0), incubating in 37° C., and absorbance (405 nm) read at 15, 30 and 60 minutes using a microplate spectrophotometer (Molecular Devices, Sunnyvale, Calif.). The activity was expressed as O.D. per mg protein per hour.
B2A2 was tested to determine whether B2A2 enhanced the biological effects of CHO-produced rhBMP-2. […] Points represent means of quintuplicate determinations±SD.
B2A2 was tested in combination with other growth factors including FGF-2, VEGF, and tGF-β1 for induction of ALP in C2C12 cells. […] Mouse C2C12 cells were cultured as described for FIG. 1A, treated with a combination of various growth factors plus or minus B2A2, incubated for 3 days, and then assayed for ALP activity as described for FIG. 1A. […] Bars represent means of quintuplicate determinations±SD.
Mouse C2C12 cells were cultured as before and B2A2 (1000 ng/mL) was added to some wells. After a 45 minute incubation all wells were rinsed with fresh medium and the medium was replaced. […] After 5 days ALP activity was measured. […] Data is the means of triplicates±SD.
In FIG. 5A, a polystyrene surface of 96-well plates were first coated by silyl-heparin (open bars), followed by a 1 μg/mL solution of B2A2 (solid bars) in PBS for (1 hr at 37° C.) and rinsed in PBS and dried at room temperature. […] ALP activity was measured five days later. Data is the means of triplicates±SD.
In FIG. 5B, stainless steel wafers were first coated with silyl-heparin (open bars) followed by 100 μg/mL B2A2 in PBS as a second coating (solid bars) and rinsed in PBS and dried at room temperature. Wafers were coated separately in wells of a 24-well plate and transferred to a fresh untreated plate prior to cell seeding.
ALP activity was measured five days later. Data is the means of triplicates±SD.

[2] = tested on: BMPR and ActivinR isoforms; test: Solid phase receptor binding assay, panel of receptor/Fc chimeras; details: insulin adsorbed to plates; Endostatin-Fc as unrelated chimeric protein
Description: Receptor binding assays. Binding to BMP receptors in a solid phase binding assay. B2A2 was absorded onto ELISA plates to saturation, soluble BMP receptor-immunoglobin Fc fusion proteins were added, and bound receptor was detected by HRP-conjugated anti-Fc antibody and colorimetric assay, values shown are background substracted. Specific binding of B2A2 to different receptor isoforms of the BMPR and Activin Receptor family were tested, employing the receptor-Fc chimeras shown. […] Bound receptor was displaced by the addition of rhBMP-2 at the levels indicated.
The compound of Example 2 was tested for specific binding to Bone Morphogenic Protein-2 receptors. Referring now to FIG. 12, results of solid phase receptor binding assays utilizing purified receptor/Fc chimeric molecules are illustrated. The chimeras are recombinant constructs of the soluble ectodomain of various receptor molecules (BMPR and ActivinR isoforms) fused to the carboxyl-terminal of the human IgG1 Fc region via a polypeptide liner. ELISA plates were coated with B2A2 or control compounds, soluble chimeric receptor/Fc antibody and quantified with a colorimeteric ELISA.

[3] = tested on: C3H10T½, MC3T3 cells or hFOB; test: Cell migration across simulated wound margin, positive control (cell line not specified); type: cell-based; details: positive control reference, FGF-2 50 ng/mL, 6 hours (data not shown)
Description: Cell migration. For studies involving migration across a wound margin, the cells were grown in vitro and used when approximately 90% confluent. A simulated wound was made by scraping cells away from the cultureware surface. The cultures were rinsed to remove unbound cells, and then incubated in DMEM:F12 medium containing 2% newborn calf serum with or without peptide. FGF-2 (50 ng/mL) was used as a positive control reference material. The cells were allowed to migrate for 6 hours after which the cells were fixed in buffered formalin. Migration was monitored via phase contrast microscopy. Migrating cells were those that had migrated across the site of the simulated wound margin.
B2A2-K-NS was tested for its ability to induce cells of preosteoblast origin to migrate to a stimulated wound margin. Murine C3H10T½, MC3T3 cells or hFOB were grown to near confluency in vitro. A stimulated wound was made by scraping the cells away from the substrate. The cells were allowed to migrate for 6 hours after which migration was monitored via microscopy. Statistical significance was determined using ANOVA followed by post hoc testing using multiple comparison versus control group (Dunnett's Method). […] Table 3 summarizes the increase in migrating cells at the simulated wound margin induced by about 0.2 to 2.0 μg/mL B2A2-K-NS.

VEGF
induction of ALP by growth factor in the presence of B2A2 [1]: failed to induce ALP

Insulin
binding of negative controls [2]: did not bind

benzyl-tetra(dimethylsilylmethyl)oxycarbamoyl-heparin [silyl-heparin, reference compound]
ALP activity on coated polystyrene surface ([1]; silyl-heparin coating alone, BMP-2 50 ng/mL in solution, 5 days): potentiates BMP-2 activity

TGF-B: growth factor purchased from Sigma Aldrich, tested in combination with B2A2
induction of ALP by growth factor in the presence of B2A2 [1]: failed to induce ALP

FGF-2: growth factor, positive control reference material for migration (50 ng/mL)
migrating cells compared to controls [3]: significant increase in migrating cells | induction of ALP by growth factor in the presence of B2A2 [1]: failed to induce ALP
